Source: US8598356B2, “Heteroaryl-substituted urea modulators of fatty acid amide hydrolase” (Janssen Pharmaceutica NV, priority 2008, dated 2013)

Experiments:
Rat FAAH = molecular target: T1, Rat FAAH (Rattus norvegicus, UniProt P97612); test: Assay Method 2: FAAH assay, hydrolysis of 3H-anandamide by cell homogenate; assay type: biochemical; settings: T84 or transfected SK-N-MC cell homogenate, 3H-AEA 80 nM, rt 1 h, average of results obtained
T1 construct: expressed in transfected cells
T1 sequence (P97612 1-579): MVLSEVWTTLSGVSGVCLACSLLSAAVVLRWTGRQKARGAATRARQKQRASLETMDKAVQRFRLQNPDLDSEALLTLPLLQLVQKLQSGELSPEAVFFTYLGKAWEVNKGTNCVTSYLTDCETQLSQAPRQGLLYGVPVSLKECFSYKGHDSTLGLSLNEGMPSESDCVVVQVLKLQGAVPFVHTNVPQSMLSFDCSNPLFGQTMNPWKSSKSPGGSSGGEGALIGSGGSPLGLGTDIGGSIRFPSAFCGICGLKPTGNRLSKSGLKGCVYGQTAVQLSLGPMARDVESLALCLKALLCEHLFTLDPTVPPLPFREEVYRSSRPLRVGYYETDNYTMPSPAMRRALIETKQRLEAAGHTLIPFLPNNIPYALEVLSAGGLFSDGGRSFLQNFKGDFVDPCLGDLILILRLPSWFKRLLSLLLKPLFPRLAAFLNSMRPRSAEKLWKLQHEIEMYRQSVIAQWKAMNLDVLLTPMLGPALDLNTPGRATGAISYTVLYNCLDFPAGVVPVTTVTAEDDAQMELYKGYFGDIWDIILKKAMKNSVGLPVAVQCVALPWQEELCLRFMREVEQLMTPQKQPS
Experimental: A. Transfection of Cells with Rat FAAH
(§1) A 10-cm tissue culture dish with a confluent monolayer of SK-N-MC cells was split 2 days (d) prior to transfection. Using sterile technique, the media was removed and the cells were detached from the dish by the addition of trypsin. One fifth of the cells were then placed onto a new 10-cm dish. Cells were grown in a 37° C. incubator with 5% CO2 in Minimal Essential Media Eagle with 10% Fetal Bovine Serum. After 2 d, cells were approximately 80% confluent. These cells were removed from the dish with trypsin and pelleted in a clinical centrifuge. The pellet was re-suspended in 400 μL complete media and transferred to an electroporation cuvette with a 0.4 cm gap between the electrodes. Supercoiled rat FAAH cDNA (1 μg) was added to the cells and mixed. The voltage for the electroporation was set at 0.25 kV, and the capacitance was set at 960 After electroporation, the cells were diluted into complete media (10 mL) and plated onto four 10-cm dishes. Because of the variability in the efficiency of electroporation, four different concentrations of cells were plated. The ratios used were 1:20, 1:10, and 1:5, with the remainder of the cells being added to the fourth dish. The cells were allowed to recover for 24 h before adding the selection media (complete media with 600 μg/mL G418). After 10 d, dishes were analyzed for surviving colonies of cells. Dishes with well-isolated colonies were used. Cells from individual colonies were isolated and tested.
(§2) T84 frozen cell pellets or transfected SK-N-MC cells (contents of 1×15 cm culture dishes) were homogenized in 50 mL of FAAH assay buffer (125 mM Tris, 1 mM EDTA, 0.2% Glycerol, 0.02% Triton X-100, 0.4 mM Hepes, pH 9). The assay mixture consisted of 50 μL of the cell homogenate, 10 μL of the test compound, and 40 μL of anandamide [1-^3H-ethanolamine] (^3H-AEA, Perkin-Elmer, 10.3 Ci/mmol), which was added last, for a final tracer concentration of 80 nM. The reaction mixture was incubated at rt for 1 h. During the incubation, 96-well Multiscreen filter plates (catalog number MAFCNOB50; Millipore, Bedford, Mass., USA) were loaded with 25 of activated charcoal (Multiscreen column loader, catalog number MACL09625, Millipore) and washed once with 100 μL of MeOH. Also during the incubation, 96-well DYNEX MicroLite plates (catalog number NL510410) were loaded with 100 μL of MicroScint40 (catalog number 6013641, Packard Bioscience, Meriden, Conn., USA). After the 1 h incubation, 60 μL of the reaction mixture were transferred to the charcoal plates, which were then assembled on top of the DYNEX plates using Centrifuge Alignment Frames (catalog number MACF09604, Millipore). The unbound labeled ethanolamine was centrifuged through to the bottom plate (5 min at 2000 rpm), which was preloaded with the scintillant, as described above. The plates were sealed and left at rt for 1 h before counting on a Hewlett Packard TopCount.
(§3) Results for compounds tested in these assays are summarized in Table 1, as an average of results obtained. Compounds were tested in free base, hydrochloride salt, and/or trifluoroacetic acid salt forms. Where activity is shown as greater than (>) a particular value, the value is the solubility limit of the compound in the assay medium or the highest concentration tested in the assay.

Human FAAH = molecular target: T2, Human FAAH (Homo sapiens, UniProt O00519); test: Assay Method 1: FAAH assay, hydrolysis of 3H-anandamide by cell homogenate; assay type: biochemical; settings: T84 or transfected SK-N-MC cell homogenate, 3H-AEA 80 nM, rt 1 h, average of results obtained
T2 construct: expressed in transfected cells; alternatively T84 frozen cell pellets
T2 sequence (O00519 1-579): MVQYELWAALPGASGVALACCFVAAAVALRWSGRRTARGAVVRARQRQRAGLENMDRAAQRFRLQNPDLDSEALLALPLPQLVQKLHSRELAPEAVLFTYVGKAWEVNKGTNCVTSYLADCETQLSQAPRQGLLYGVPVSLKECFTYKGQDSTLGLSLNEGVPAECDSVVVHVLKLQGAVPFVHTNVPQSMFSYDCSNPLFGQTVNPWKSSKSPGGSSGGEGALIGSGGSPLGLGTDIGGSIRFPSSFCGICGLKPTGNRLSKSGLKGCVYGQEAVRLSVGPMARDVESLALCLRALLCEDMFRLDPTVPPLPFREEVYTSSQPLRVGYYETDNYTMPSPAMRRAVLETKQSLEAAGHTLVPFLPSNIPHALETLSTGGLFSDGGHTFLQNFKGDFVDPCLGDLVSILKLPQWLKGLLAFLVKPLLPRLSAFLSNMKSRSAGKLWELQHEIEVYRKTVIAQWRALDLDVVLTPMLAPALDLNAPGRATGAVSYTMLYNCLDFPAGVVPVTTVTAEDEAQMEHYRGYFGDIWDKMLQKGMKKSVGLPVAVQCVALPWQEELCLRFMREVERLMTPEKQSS
Experimental: A. Transfection of Cells with Human FAAH
as §1, with “Supercoiled human” for “Supercoiled rat”, “960 μF.” for “960”
as §2, with “with 25 μL of activated” for “with 25 of activated”, “plates using” for “plates using Centrifuge Alignment Frames (catalog number MACF09604, Millipore). The unbound labeled ethanolamine was centrifuged through to the bottom plate (5 min at 2000 rpm), which was preloaded with the scintillant, as described above. The plates were sealed and left at rt for 1 h before counting on a Hewlett Packard TopCount.”
Centrifuge Alignment Frames (catalog number MACF09604, Millipore). The unbound labeled ethanolamine was centrifuged through to the bottom plate (5 min at 2000 rpm), which was preloaded with the scintillant, as described above. The plates were sealed and left at rt for 1 h before counting on a Hewlett Packard TopCount.
as §3

| SMILES | IC50 (Rat FAAH) | IC50 (Human FAAH) |
| --- | --- | --- |
| O=C(Nc1cccnc1)N1CCCC(Cc2cccc(Oc3ccc(Cl)cc3)c2)C1 (single isomer, unassigned; (+)) [Example 13, (+)-3-[3-(4-Chloro-phenoxy)-benzyl]-piperidine-1-carboxylic acid pyridin-3-ylamide] | 31 nM | 19 nM |
| O=C(Nc1cccnc1)N1CCCC(Cc2cnc3ccccc3c2)C1 (centres unmarked) [Example 16, 3-Quinolin-3-ylmethyl-piperidine-1-carboxylic acid pyridin-3-ylamide] | > 10000 nM | 1000 nM |
| O=C(Nc1noc2ccccc12)N1CCCC(Cc2ccc(F)cc2)C1 (centres unmarked) [Example 7, N-1,2-Benzisoxazol-3-yl-3-[(4-fluorophenyl)methyl]piperidine-1-carboxamide] | 152 nM | 2000 nM |
| O=C(Nc1ccncn1)N1CCCC(Cc2ccc(F)cc2)C1 (centres unmarked) [Example 4, 3-[4(4-Fluorophenyl)methyl]-N-pyrimidin-4-ylpiperidine-1-carboxamide] | > 10000 nM | 10000 nM |
